Source: PubChem BioAssay (NCI)
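48-hour exposure; five concentrations; linearly interpolated endpoints. GI50: concentration for 50% inhibition of growth. TGI is the concentration that stops growth completely.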

What was measured:
Experiment in all cases: NCI anticancer screen, dose series, 48 h
SK-MEL-2 melanoma = test system: SK-MEL-2 melanoma
M14 melanoma = test system: M14 melanoma
HT29 colon = test system: HT29 colon
OVCAR-5 ovarian = test system: OVCAR-5 ovarian
MOLT-4 leukemia = test system: MOLT-4 leukemia
SK-OV-3 ovarian = test system: SK-OV-3 ovarian
K-562 leukemia = test system: K-562 leukemia
SF-268 CNS = test system: SF-268 CNS
UO-31 renal = test system: UO-31 renal
DU-145 prostate = test system: DU-145 prostate
HCC-2998 colon = test system: HCC-2998 colon
EKVX NSCLC = test system: EKVX NSCLC
MCF7 breast = test system: MCF7 breast
CAKI-1 renal = test system: CAKI-1 renal
HOP-62 NSCLC = test system: HOP-62 NSCLC
SF-295 CNS = test system: SF-295 CNS
NCI-H460 lung = test system: NCI-H460 lung
A498 renal = test system: A498 renal
SN12C renal = test system: SN12C renal
SK-MEL-5 melanoma = test system: SK-MEL-5 melanoma
HCT-116 colon = test system: HCT-116 colon
OVCAR-3 ovarian = test system: OVCAR-3 ovarian
HOP-92 NSCLC = test system: HOP-92 NSCLC
MALME-3M melanoma = test system: MALME-3M melanoma
HS 578T breast = test system: HS 578T breast
LOX IMVI melanoma = test system: LOX IMVI melanoma
SNB-75 CNS = test system: SNB-75 CNS
SF-539 CNS = test system: SF-539 CNS

C=C1C(=O)c2sccc2C(c2ccc(OC)c(OC)c2)C1COC(C)=O (stereo not drawn)
GI50 (SK-MEL-2 melanoma): 10.8 µM
TGI (SK-MEL-2 melanoma): 23 µM
TGI (M14 melanoma): 3.1 µM
GI50 (HT29 colon): 1.36 µM
TGI (HT29 colon): 4.01 µM
GI50 (OVCAR-5 ovarian): 2.42 µM
TGI (OVCAR-5 ovarian): 9.29 µM
GI50 (MOLT-4 leukemia): 0.219 µM
TGI (MOLT-4 leukemia): 0.733 µM
GI50 (SK-OV-3 ovarian): 5.46 µM
TGI (SK-OV-3 ovarian): 20 µM
GI50 (K-562 leukemia): 0.2 µM
TGI (K-562 leukemia): > 29.7 µM
GI50 (SF-268 CNS): 3.44 µM
TGI (SF-268 CNS): 12.9 µM
GI50 (UO-31 renal): 1.81 µM
TGI (UO-31 renal): 3.39 µM
GI50 (DU-145 prostate): 0.761 µM
TGI (DU-145 prostate): 2.04 µM
GI50 (HCC-2998 colon): 2.89 µM
TGI (HCC-2998 colon): 7.56 µM
GI50 (EKVX NSCLC): 8.37 µM
TGI (EKVX NSCLC): 21.3 µM
GI50 (MCF7 breast): 0.953 µM
TGI (MCF7 breast): 2.98 µM
GI50 (CAKI-1 renal): 2.1 µM
TGI (CAKI-1 renal): 6.57 µM
GI50 (HOP-62 NSCLC): 6.54 µM
TGI (HOP-62 NSCLC): 15.7 µM
GI50 (SF-295 CNS): 4.43 µM
TGI (SF-295 CNS): 16.5 µM
GI50 (NCI-H460 lung): 3.72 µM
TGI (NCI-H460 lung): 14 µM
GI50 (A498 renal): 2.13 µM
TGI (A498 renal): 7.2 µM
GI50 (SN12C renal): 1.33 µM
TGI (SN12C renal): 3.24 µM
GI50 (SK-MEL-5 melanoma): 1.9 µM
TGI (SK-MEL-5 melanoma): 4.74 µM
GI50 (HCT-116 colon): 1.62 µM
TGI (HCT-116 colon): 10.3 µM
GI50 (OVCAR-3 ovarian): 1.67 µM
TGI (OVCAR-3 ovarian): 5.79 µM
GI50 (HOP-92 NSCLC): 2.46 µM
TGI (HOP-92 NSCLC): 6.91 µM
GI50 (MALME-3M melanoma): 1.5 µM
TGI (MALME-3M melanoma): 6.41 µM
GI50 (HS 578T breast): 2.54 µM
TGI (HS 578T breast): 8.4 µM
GI50 (LOX IMVI melanoma): 0.173 µM
GI50 (SNB-75 CNS): 8.39 µM
TGI (SNB-75 CNS): 28.8 µM
GI50 (SF-539 CNS): 1.61 µM
